# Data: patent US20260158043A1, “STEROID AS A MODULATOR OF GABAA RECEPTOR” (UMECRINE COGNITION AB, priority 2021, published 2026)
# Where “and” joins values, the source holds several entries; their conditions need not be identical. Equal entries are not always repeated. Entries after “also recorded” stand apart in the source; their conditions may differ.
# Key:
# [1] = Weight increase in growing male rats, experiment 2 (10 days s.c., with progesterone + estradiol); format: in vivo, Male Wistar rats; conditions: for Weight difference compared to vehicle (Mean±SE) / Weight difference versus E+P control rats (Mean±SE): 10 days, n=9
# Procedure: Animals: Male Wistar rats were kept in group cages, with three animals per cage, from delivery and throughout the period of experiments. The individual animals were marked so that they could be identified throughout the experiment duration. The animals weight an average of 152 g upon arrival. A reversed light dark (12:12 h) cycle was used with the dark period onset at 0600 hrs. Altogether fifty-six (56) rats were used in this study (experiment 1+2). The animals were delivered from the breeder Taconic (Denmark). The study protocol was approved by the Regional Ethics Committee of Umea University, Sweden.
# Feeding: Standard chow and water were available ad libitum. A reversed 12-h dark-light cycle with lights off at 10.00 am and lights on at 22.00 pm was used. For identification, the rats were marked with a permanent marker on the tail. To avoid the endogenous allopregnanolone fluctuations that are present in the oestrous cycle of female rats, male rats were chosen (Frye et al. 2000). The animals were allowed to acclimatize for at least 3 weeks before start of the experimental sessions. During this period, the rats were repeatedly handled and allowed habituation to the new environment and to all new procedures, to minimize stress during the experiments.
# After 14 days of triad housing, handling and injection training of the animals, the animals were treated for 5 days with IV injections in experiment 1 and 10 days with a daily subcutaneous injection of the assigned treatment in experiment 2 (Table 3 and 4). The injections were given at 08.00 every morning. The animals were weighed the day before onset of the treatment and at the last day of injection i.e. on the 5th or 10th day of treatment. Weight was taken at the time of the last injection. […] The results are shown in FIG. 2 (experiment 1) and FIG. 3 (experiment 2), respectively.
# [2] = molecular target: T1, human α1β2γ2L GABAA receptor (Homo sapiens, UniProt P14867+P18507+P47870); assay: Patch-clamp (Dynaflow) of GABA-mediated current in HEK-293 cells expressing α1β2γ2L GABAA receptor; format: cell-based
# T1 construct: expressed in transfected cells
# T1 sequence (P14867 28-456): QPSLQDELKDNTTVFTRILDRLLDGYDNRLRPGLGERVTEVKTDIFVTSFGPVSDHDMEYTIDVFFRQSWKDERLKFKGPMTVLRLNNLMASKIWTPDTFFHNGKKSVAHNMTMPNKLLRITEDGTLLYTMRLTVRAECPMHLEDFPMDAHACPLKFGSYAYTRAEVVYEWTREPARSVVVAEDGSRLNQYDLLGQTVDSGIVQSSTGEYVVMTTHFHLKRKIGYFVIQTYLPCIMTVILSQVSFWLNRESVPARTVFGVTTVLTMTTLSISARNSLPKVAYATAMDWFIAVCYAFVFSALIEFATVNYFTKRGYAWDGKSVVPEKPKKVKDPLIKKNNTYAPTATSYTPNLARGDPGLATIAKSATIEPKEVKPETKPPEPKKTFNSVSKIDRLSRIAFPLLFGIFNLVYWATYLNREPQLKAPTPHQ
# T1 sequence (P47870 25-512 limits assumed): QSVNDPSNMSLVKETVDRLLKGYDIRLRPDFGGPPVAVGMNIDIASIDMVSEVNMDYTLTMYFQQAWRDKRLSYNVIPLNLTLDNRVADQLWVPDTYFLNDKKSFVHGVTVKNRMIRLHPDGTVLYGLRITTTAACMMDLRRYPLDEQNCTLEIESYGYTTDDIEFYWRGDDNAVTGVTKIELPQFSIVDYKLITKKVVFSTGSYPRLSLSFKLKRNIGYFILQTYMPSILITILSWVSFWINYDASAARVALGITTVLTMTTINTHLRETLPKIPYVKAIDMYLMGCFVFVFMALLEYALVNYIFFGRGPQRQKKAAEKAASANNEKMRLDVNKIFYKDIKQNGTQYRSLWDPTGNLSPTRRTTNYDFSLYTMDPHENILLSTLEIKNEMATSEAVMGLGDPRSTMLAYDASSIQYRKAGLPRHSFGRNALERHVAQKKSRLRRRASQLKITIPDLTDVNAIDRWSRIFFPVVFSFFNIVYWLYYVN
# T1 sequence (P18507 40-475): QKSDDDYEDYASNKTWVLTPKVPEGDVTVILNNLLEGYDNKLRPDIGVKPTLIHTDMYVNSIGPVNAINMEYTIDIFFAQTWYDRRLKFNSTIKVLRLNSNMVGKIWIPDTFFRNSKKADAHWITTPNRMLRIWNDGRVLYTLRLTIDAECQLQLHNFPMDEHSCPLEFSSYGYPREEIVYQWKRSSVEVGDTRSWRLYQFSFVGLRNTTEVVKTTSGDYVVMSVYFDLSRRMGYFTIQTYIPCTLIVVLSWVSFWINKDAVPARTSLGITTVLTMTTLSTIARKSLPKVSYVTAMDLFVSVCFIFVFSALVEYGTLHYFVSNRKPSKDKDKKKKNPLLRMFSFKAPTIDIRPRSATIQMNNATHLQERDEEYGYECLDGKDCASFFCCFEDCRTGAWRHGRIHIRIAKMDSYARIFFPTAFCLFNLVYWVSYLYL
# Description: (§1) Aim: To investigate the effect of 3α-ethynyl-3β-hydroxy-5α-androstan-17-one on the GABAA receptor function both in absence and in presence of the GAMS tetrahydrodeoxycorticosterone (THDOC) by the Dynaflow™ system (Fluicell) on HEK-293 cells recombinantly expressing human α1β2γ2L GABAA receptor or human α3β3γ2 GABAA receptor subtype. In these tests the protocol was optimized to be similar to the physiological conditions in the synaptic cleft.
# (§2) Preparation of cell lines: Cell lines permanently expressing a functional human GABAA receptor was made as follows. The GABAA receptor subunits α1β2γ2L or α3β3γ2 including introduced Kozac sequences just before the start codons were subcloned into mammalian expression vectors comprising Geneticin, Hygromycin B, and Zeocin resistance, respectively. A HEK-293 cell line stably expressing the three GABAA receptor subunits (α1β2γ2L, α3β3γ2) separately for α1β2γ2L and α3β3γ2 subunit composition was produced by transfection of the subunits one at a time. The transfection was followed by selection with the appropriate antibiotics, cell separation with the use of subunit specific antibodies (β2 and γ2, Abcam, Upstate/Chemicon/Milipore, Sigma Aldrich), and production of single cell colonies. Produced cell lines were analysed with immunocytochemistry for the three GABAA receptor subunits, followed by selection of a suitable cell line showing for the GABAA receptor normal and good reactivity towards GABA and THDOC.
# (§3) HEK-293 cells (obtained from Pasteur Institute, Paris, France), permanently transfected with the human 1β2γ2L or α3β3γ2 GABAA receptor subtypes, were seeded at a density of 3×10^4/25 cm^2 in a culture flask. The transfected cells were used for patch-clamp experiments 3 days after seeding. When using the cells for patch-clamp experiments the cells were washed twice with oxygen-bubbled EC-solution (see below). About 5 mL EC was then added and the cells were kept in the incubator for about 15 minutes. After 15 minutes the cells came loose from the bottom of the flask and were separated by carefully sucking a couple of times with a Pasteur pipette.
# (§4) Dynaflow™ system with Resolve chips (Fluicell) was used for all patch-clamp experiments. The DF-16 Proll chips (Fluicell) used have non-sticky inserts for the wells. The channel width was 150 μm and the height 50 μm. The well volume was 280 μL. Run time at the […] is […]. The pump settings were as follow: Omnifix 2 mL syringe with inner diameter of 9.65 mm was used. The syringe pump flow rate for DF-16 Pro II chip was 26 μL/min.
# Steroids and GABA: GABA (Sigma Aldrich) was dissolved in EC-solution by ultrasound for about 40 minutes to the concentration of 10 mM in room temperature. All steroids were dissolved to the concentration of 6 mM in DMSO. […]
# [3] = tested on: GABAA receptor; conditions: taught in WO 09/142594, table 3; cited from earlier work
# [4] = molecular target: T2, human α3β3γ2 GABAA receptor subtype (Homo sapiens, UniProt P18507+P28472+P34903); assay: Patch-clamp (Dynaflow) of GABA-mediated current in HEK-293 cells expressing α3β3γ2L GABAA receptor; format: cell-based
# T2 construct: expressed in transfected cells
# T2 sequence (P34903 29-492): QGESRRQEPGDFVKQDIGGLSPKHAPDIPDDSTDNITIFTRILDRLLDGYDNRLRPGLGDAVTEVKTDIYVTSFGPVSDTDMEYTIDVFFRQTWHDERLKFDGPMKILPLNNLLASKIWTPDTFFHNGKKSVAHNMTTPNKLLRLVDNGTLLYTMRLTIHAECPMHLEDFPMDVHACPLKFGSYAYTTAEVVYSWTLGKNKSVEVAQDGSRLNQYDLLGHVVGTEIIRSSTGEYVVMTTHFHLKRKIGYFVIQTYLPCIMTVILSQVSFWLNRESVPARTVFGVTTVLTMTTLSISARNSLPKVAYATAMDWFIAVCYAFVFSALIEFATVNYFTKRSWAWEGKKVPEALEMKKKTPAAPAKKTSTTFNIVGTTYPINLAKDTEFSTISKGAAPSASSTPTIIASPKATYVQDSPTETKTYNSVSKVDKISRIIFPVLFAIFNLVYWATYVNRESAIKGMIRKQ
# T2 sequence (P28472 26-473): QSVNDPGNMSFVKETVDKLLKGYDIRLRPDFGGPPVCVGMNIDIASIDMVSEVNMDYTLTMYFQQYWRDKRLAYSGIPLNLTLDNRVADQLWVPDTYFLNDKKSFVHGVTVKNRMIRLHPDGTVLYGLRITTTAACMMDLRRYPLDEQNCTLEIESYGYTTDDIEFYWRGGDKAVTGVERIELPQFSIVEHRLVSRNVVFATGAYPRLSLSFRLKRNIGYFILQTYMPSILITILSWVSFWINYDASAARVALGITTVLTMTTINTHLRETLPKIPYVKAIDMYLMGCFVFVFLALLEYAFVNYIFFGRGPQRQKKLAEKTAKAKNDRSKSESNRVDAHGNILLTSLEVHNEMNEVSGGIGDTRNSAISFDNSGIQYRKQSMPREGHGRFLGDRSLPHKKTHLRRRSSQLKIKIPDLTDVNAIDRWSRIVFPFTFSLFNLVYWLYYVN
# T2 sequence (P18507 40-475): as the sequence (P18507 40-475) above
# Description: as §1, §2, §3, §4
# Steroids and GABA: GABA (Sigma Aldrich) was dissolved in EC-solution by ultrasound for about 40 minutes to the concentration of 10 mM in room temperature. All steroids were dissolved to the concentration of 6 mM in DMSO. The DMSO concentration was 0.1% in all end-solutions, including the wash solution (EC) and the solution with GABA alone. End-solutions are the solutions added into the wells of the chip.
# Electrophysioloqy: Patch electrodes were pulled from 1.5 mm O.D., 0.86 mm I.D. borosilicate capillary glass without filament. […] The intracellular solution consisted of (in mM): 140 Cs-gluconate, 3.0 NaCl, 1.2 MgCl2, 1.0 EGTA, 10 HEPES. pH was adjusted to 7.2 with CsOH. The extracellular (EC) solution used during recordings contained (in mM): 137 NaCl, 5.0 KCl, 1.0 CaCl2), 1.2 MgCl2, 10 HEPES, 10 glucose. pH was adjusted with NaOH to 7.4. All chemicals in the intracellular and extracellular solutions were obtained from Sigma-Aldrich. After compensating for the liquid junction potential, a steady holding potential of −17 mV was used in all experiments. In physiological conditions the HEK-293 has a resting potential at −40 mV and a low concentration of chloride ions inside the cell. By using the holding potential of −17 mV and the intracellular solution with low chloride ion concentration the chloride ions flux into the cell when the receptors are activated. […]
# [5] = molecular target: α3β2γ2 GABAA receptor subtype (Homo sapiens, UniProt P28472+P34903); assay: Patch-clamp (Dynaflow), THDOC on GABA-mediated current at α3β2γ2 receptor subtype; format: cell-based; conditions: 1-1000 nM THDOC 20 s preincubation, 100 μM GABA 1 s, read-out: Emax for effect on GABA mediated current response
# Sequence of α3β2γ2 GABAA receptor subtype (P34903 29-492): as the sequence (P34903 29-492) above
# Sequence of α3β2γ2 GABAA receptor subtype (P28472 26-473): as the sequence (P28472 26-473) above
# Sequence of α3β2γ2 GABAA receptor subtype (P18507 40-475 partner): as the sequence (P18507 40-475) above
# Procedure: (§5) Study design: The current response mediated by chloride ion flux through the GABAA receptors expressing the α1β2γ2L, α2β3γ2S, α3β3γ2L, α4β3δ and α5β3γ2L subunit was studied with the use of patch clamp technique combined with the Dynaflow™ application system and the Resolve chip. This provides rapid applications of and removal of substances. The material, protocol and methods were identical to the ones used in Examples 1 and 2. 1 μM 3α-ethynyl-3β-hydroxy-5α-androstan-17-one was studied on GABA mediated current response at α1β2γ2L, α2β3γ2S, α4β3δ and α5β3γ2L GABAA receptor subtypes (FIG. 4, Table 6). In addition, the effect of 1-1000 nM THDOC was studied on GABA mediated current response at the α1β2γ2L, α3β2γ2, and α5β3γ2L receptor subtypes (Table 8). The binding site of THDOC is in the […] region of the receptor. To achieve stable response, the cells were exposed to steroid (THDOC) in 20 seconds before GABA application.
# (§6) THDOC: The following standard protocol was used for the different receptor subtypes: • α1β2γ2L: 20 s preincubation of 30-1000 nM THDOC 40 ms application of 30 μM GABA±steroids. • α3β2γ2: 20 s preincubation of 1-1000 nM THDOC followed by 1 s application of 100 μM GABA±steroids. • α5β3γ2L: 20 s preincubation of 30-1000 nM THDOC followed by 6 s application of 0.3 μM GABA±steroids.
# [6] = molecular target: T3, human α5β3γ2L GABAA receptor (Homo sapiens, UniProt P18507+P28472+P31644); assay: Patch-clamp (Dynaflow) of GABA-mediated current at α5β3γ2L GABAA receptor; format: cell-based
# T3 construct: expressed in transfected cells
# T3 sequence (P31644 32-462): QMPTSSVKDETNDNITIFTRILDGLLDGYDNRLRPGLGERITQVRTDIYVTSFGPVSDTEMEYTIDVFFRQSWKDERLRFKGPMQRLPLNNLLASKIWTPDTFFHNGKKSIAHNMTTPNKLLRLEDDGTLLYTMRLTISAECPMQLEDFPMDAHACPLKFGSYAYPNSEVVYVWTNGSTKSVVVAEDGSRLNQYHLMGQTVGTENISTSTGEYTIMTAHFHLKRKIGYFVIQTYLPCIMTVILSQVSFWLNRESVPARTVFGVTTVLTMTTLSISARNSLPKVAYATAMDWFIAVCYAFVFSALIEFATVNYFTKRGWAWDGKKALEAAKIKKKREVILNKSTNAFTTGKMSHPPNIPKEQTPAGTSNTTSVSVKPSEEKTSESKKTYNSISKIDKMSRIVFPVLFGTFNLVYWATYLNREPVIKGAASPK
# T3 sequence (P28472 26-473): as the sequence (P28472 26-473) above
# T3 sequence (P18507 40-475): as the sequence (P18507 40-475) above
# Description: (§7) Aim: the aim of this project was to study the effect of 3α-ethynyl-3β-hydroxy-5α-androstan-17-one and the positive GABAA receptor modulator THDOC on GABA-mediated current response, at human α1β2γ2L, α2β3γ2S, α4β3δ and α5β3γ2L subunit GABAA receptors.
# as §5
# (§8) The amount GABA used depends on the receptor subtype intra or extra-synaptic type, α1β2γ2L=30 μM; α2β3γ2S=45 μM; α4β3δ=1 μM and α5β3γ2L=0.3 μM GABA.
# as §6
# [7] = molecular target: T4, human α4β3δ GABAA receptor (Homo sapiens, UniProt O14764+P28472+P48169); assay: Patch-clamp (Dynaflow) of GABA-mediated current at α4β3δ GABAA receptor; format: cell-based; conditions: agonist effect
# T4 construct: expressed in transfected cells
# T4 sequence (P48169 36-554): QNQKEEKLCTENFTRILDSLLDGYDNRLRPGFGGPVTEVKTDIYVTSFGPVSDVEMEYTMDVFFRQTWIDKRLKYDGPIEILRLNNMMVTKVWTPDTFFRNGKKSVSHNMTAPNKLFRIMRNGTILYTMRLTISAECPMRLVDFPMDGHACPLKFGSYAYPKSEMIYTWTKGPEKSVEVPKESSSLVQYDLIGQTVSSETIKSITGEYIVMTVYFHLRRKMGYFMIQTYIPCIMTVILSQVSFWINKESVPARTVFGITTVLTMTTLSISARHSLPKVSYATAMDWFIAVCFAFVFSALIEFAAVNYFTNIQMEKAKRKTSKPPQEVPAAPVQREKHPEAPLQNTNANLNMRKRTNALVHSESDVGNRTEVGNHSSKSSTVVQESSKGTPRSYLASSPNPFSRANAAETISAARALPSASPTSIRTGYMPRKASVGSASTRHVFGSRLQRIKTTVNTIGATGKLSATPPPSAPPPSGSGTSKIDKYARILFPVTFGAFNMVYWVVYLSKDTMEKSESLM
# T4 sequence (P28472 26-473): as the sequence (P28472 26-473) above
# T4 sequence (O14764 17-452 limits assumed): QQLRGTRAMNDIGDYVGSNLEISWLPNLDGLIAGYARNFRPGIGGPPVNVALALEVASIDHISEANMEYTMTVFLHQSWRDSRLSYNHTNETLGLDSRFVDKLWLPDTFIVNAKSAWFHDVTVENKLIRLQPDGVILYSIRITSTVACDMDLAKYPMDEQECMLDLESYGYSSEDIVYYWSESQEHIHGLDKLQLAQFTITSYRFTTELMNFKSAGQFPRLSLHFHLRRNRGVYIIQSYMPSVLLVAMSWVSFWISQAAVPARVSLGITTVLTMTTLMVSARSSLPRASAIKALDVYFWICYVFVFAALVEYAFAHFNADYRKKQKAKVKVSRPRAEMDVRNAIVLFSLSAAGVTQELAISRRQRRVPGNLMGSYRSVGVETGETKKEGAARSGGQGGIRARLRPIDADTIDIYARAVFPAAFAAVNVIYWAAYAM
# Description: as §7, §5, §8
# [8] = 1 mg/kg s.c. + 5 mg/kg progesterone + 10 μg/kg 17β-estradiol
# [9] = 5 mg/kg s.c. + 5 mg/kg progesterone + 10 μg/kg 17β-estradiol
compound,measurement,setting,value
C#C[C@]1(O)CC[C@@]2(C)[C@@H](CC[C@@H]3[C@@H]2CC[C@]2(C)C(=O)CC[C@@H]32)C1 [3α-ethynyl-3β-hydroxy-5α-androstan-17-one],Weight difference compared to vehicle (Mean±SE),[1]; [8],-33 ± 4.4 g
same,Weight difference versus E+P control rats (Mean±SE),[1]; [8],-23.9 ± 4.4 g
same,Weight difference compared to vehicle (Mean±SE),[1]; [9],-29.6 ± 5.2 g
same,Weight difference versus E+P control rats (Mean±SE),[1]; [9],-20.4 ± 5.2 g
same,Difference in weight after 10 days of treatment compared to vehicle,"[1]; s.c., 10 days of treatment",over 20%
same,Antagonism of 100 nM THDOC-enhancement at α1β2γ2,[2]; 1 μM compound + THDOC + GABA,no significant agonistic or antagonistic effect; also recorded: No effect
same,Effect as a GAMSA or GAMS,[3],no effect
same,"Effect on 100 μM GABA-mediated current response, Mean ± SEM %","[4]; 0.003 μM compound + 100 μM GABA, α3β3γ2L",+2.5 ± 2.9%
same,"Own effect, Baseline shift","[4]; 0.003 μM compound, absence of GABA, α3β3γ2L",−1.0 ± 0.4 pA
same,"Effect on 100 μM GABA-mediated current response, Mean ± SEM %","[4]; 0.01 μM compound + 100 μM GABA, α3β3γ2L",−3.0 ± 2.3%
same,"Own effect, Baseline shift","[4]; 0.01 μM compound, absence of GABA, α3β3γ2L",−0.7 ± 0.7 pA
same,"Effect on 100 μM GABA-mediated current response, Mean ± SEM %","[4]; 0.03 μM compound + 100 μM GABA, α3β3γ2L",−2.0 ± 1.0%
same,"Own effect, Baseline shift","[4]; 0.03 μM compound, absence of GABA, α3β3γ2L",−0.8 ± 1.2 pA
same,"Effect on 100 μM GABA-mediated current response, Mean ± SEM %","[4]; 0.1 μM compound + 100 μM GABA, α3β3γ2L",−4.0 ± 3.0%
same,"Own effect, Baseline shift","[4]; 0.1 μM compound, absence of GABA, α3β3γ2L",−1.0 ± 0.8 pA
same,"Effect on 100 μM GABA-mediated current response, Mean ± SEM %","[4]; 0.3 μM compound + 100 μM GABA, α3β3γ2L",−10% and −10 ± 2.3%
same,"Own effect, Baseline shift","[4]; 0.3 μM compound, absence of GABA, α3β3γ2L",+0.9 ± 0.5 pA
same,"Own effect, Baseline shift","[4]; 1 μM compound, absence of GABA, α3β3γ2L",−1.2 ± 0.5 pA
same,"Effect on 100 μM GABA-mediated current response, Mean ± SEM %","[4]; 3 μM compound + 100 μM GABA, α3β3γ2L",−74 ± 0.9%
same,"Own effect, Baseline shift","[4]; 3 μM compound, absence of GABA, α3β3γ2L",−0.4 ± 0.4 pA
same,"Effect on 100 μM GABA-mediated current response, Mean ± SEM %","[4]; 10 μM compound + 100 μM GABA, α3β3γ2L",−76 ± 1.9%
same,"Own effect, Baseline shift","[4]; 10 μM compound, absence of GABA, α3β3γ2L",+1.1 + 2.4 pA
same,Activation of the α3β3γ2L GABAA receptor in absence of GABA,"[4]; 0.003-10 μM, absence of GABA",do not activate
same,Imax on 100 μM GABA-mediated current response,"[4]; 0.003-10 μM, best fit curve, α3β3γ2L",−78%
same,IC50,"[4]; 0.003-10 μM, best fit curve, α3β3γ2L, read-out: IC50 on 100 μM GABA-mediated current response",800 nM
"C[C@]12CC[C@@H](O)C[C@@H]1CC[C@@H]1[C@@H]2CC[C@]2(C)[C@@H](C(=O)CO)CC[C@@H]12 [THDOC, 3α, 21-dihydroxy-5α-pregnan-20-one]",Emax,"[2]; HEK293, α1β2γ2L, 30-1000 nM THDOC 20 s preincubation, 30 μM GABA 40 ms, read-out: Emax for effect on GABA mediated current response",115%
same,Effect on GABA-mediated current at α1β2γ2L (in words),[2]; agonist effect,significantly enhances
same,EC50,"[2]; α1β2γ2L, 30-1000 nM THDOC 20 s preincubation, 30 μM GABA 40 ms, read-out: EC50 for effect on GABA mediated current response",70 nM
same,Emax,[5],80%
same,Effect on GABA-mediated current at α5β3γ2L (in words),[6]; agonist effect,significantly enhances
same,EC50,"[6]; α5β3γ2L, 30-1000 nM THDOC 20 s preincubation, 0.3 μM GABA 6 s, read-out: EC50 for effect on GABA mediated current response",68 nM
same,Emax,"[6]; α5β3γ2L, 30-1000 nM THDOC 20 s preincubation, 0.3 μM GABA 6 s, read-out: Emax for effect on GABA mediated current response",131%
same,Effect on GABA-mediated current at α4β3δ (in words),[7],significantly enhances
